Reference: patent US12662451B2, “Chemical compounds and uses thereof” (GLAXOSMITHKLINE INTELLECTUAL PROPERTY (NO.4) LIMITED, priority 2023, dated 2026)
Counter-ions that a name gives are not always drawn. Like-named read-outs stand apart in the source and are kept apart here.

Legend:
[1] = target: T1, recombinant full-length WRN protein (1-1432) (Homo sapiens, UniProt Q14191); test: WRN unwinding activity, fluorogenic 384-well assay (Example A); assay type: biochemical; conditions: WRN unwinding activity, 4 hr; Table 2; read-out: 4 hr UNW pIC50 (converted)
T1 construct: recombinant full-length WRN protein (1-1432)
T1 sequence (Q14191 whole entry): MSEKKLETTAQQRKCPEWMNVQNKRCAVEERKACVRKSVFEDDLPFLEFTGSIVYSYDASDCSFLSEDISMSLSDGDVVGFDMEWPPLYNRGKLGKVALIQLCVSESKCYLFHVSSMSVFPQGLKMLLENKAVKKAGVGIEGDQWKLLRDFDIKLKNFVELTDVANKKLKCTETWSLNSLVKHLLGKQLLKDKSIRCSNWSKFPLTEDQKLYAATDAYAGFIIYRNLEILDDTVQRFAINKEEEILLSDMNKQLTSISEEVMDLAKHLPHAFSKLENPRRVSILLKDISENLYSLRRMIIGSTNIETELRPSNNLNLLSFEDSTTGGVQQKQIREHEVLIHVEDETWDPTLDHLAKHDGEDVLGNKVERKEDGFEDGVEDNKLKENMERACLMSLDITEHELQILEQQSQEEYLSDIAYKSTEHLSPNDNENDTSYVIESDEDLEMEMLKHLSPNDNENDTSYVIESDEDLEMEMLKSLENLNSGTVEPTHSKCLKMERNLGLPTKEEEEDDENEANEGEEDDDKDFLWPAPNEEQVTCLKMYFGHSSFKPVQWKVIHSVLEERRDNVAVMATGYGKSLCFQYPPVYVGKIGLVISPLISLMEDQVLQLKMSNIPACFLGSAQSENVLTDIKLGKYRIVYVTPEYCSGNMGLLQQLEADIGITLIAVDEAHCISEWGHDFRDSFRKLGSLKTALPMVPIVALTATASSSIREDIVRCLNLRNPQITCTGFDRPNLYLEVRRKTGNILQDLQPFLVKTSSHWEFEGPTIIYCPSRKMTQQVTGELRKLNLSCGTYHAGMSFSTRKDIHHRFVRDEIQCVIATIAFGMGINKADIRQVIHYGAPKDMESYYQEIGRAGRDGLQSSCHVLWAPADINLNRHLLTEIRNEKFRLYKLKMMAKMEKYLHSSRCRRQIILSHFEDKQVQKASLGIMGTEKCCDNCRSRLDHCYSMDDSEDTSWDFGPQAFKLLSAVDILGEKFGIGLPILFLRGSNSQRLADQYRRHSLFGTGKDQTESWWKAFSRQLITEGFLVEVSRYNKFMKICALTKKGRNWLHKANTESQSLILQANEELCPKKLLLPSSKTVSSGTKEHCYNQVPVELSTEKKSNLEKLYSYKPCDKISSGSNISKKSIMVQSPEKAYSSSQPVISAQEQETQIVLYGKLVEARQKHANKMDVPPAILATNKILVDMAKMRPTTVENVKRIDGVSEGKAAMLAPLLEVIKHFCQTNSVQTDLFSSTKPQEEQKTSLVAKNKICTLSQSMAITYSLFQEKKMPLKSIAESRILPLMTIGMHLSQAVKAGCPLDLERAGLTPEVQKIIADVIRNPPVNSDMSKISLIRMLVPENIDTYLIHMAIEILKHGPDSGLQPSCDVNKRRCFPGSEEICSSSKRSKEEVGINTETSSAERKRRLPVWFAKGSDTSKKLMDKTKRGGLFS
Method in brief: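 Read-out is end-point unwinding of a fluorophore/quencher duplex (ex 525, em 598 nm) after 60 min with 200 μM ATP and 12 nM DNA (2× stocks), EDTA stop. Compound first sat 4 h with 200 pM WRN (2× stock) in pH 8.0 Tris buffer; four-parameter fit gives pIC50.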

[2] = Cell culture media unbound percentage and stability by rapid equilibrium dialysis (Example C); assay type: in vitro ADME; conditions: bovine, cell assay medium (RPMI-1640 with 10% fetal bovine serum), pH 7.4, rapid equilibrium dialysis, 4 hours at 37° C., read-out: Cell Culture Media Binding (% unbound)
Procedure: (§1) It was observed that the compounds of the present disclosure are bound to cell assay media to various degrees, which would affect the cellular potency analysis in Example B. To measure free drug potency, concentrations used in the cell assays were corrected with the measured free fraction determined in the cell assay media. Compounds were incubated in a rapid equilibrium dialysis (RED) at a nominal concentration of 1 μM, using a dialysis buffer of phosphate-buffered saline (PBS, 100 mM sodium phosphate+150 mM sodium chloride, pH 7.4). The test compound was spiked into the medium. Aliquots were added to the donor wells of a RED plate in triplicate, and blank PBS was added to each receiver well, at volumes recommended by the manufacturer. Plates were incubated with shaking at 200 rpm for 4 hours at 37° C. The resultant samples were analysed by LC-MS/MS using a specific and sensitive method. Results were reported as analyte:internal standard peak area ratios (PARs), and the percent unbound was calculated with the following equation:
[formula] where D=the matrix dilution factor (D=1 for media); Apparent Fu=Crec/Cdon; Crec=PAR in receiver samples; Cdon=PAR in donor samples. Percent stability was calculated by:
(§2) [formula] where Cfinal=PAR in the T=240 minute sample; Cinitial=PAR in the T=0 minute sample. Cell culture media unbound percentage and calculated free drug potency of selected compounds along with their measured potency from Example B are shown in Table 3.

[3] = test system: SW48 human colorectal cancer cells; test: Calculated free drug potency in SW48 cell assay, corrected with media free fraction (Example C); assay type: cell-based; conditions: Homo sapiens, SW48, SW48 pCC50 corrected with measured free fraction in cell assay media
Procedure: as §1, §2

[4] = test system: SW48 human colorectal cancer cells (MSI-H cancer cells); test: SW48 cell viability, CellTiter-Glo, 120 hours (Example B); conditions: Homo sapiens
[5] = SW48, 120 h, read-out: SW48 pCC50, SW48 cell viability, 120 hours incubation (converted), Table 2
[6] = SW48, read-out: SW48 pCC50, measured potency from Example B, as repeated in Table 3 (converted)

| Compound | IC50 [1] [nM] | fraction unbound at 4 h, 1 µM [2] | CC50 [3] [nM] | CC50 [4, 5] [nM] | CC50 [4, 6] [nM] |
| --- | --- | --- | --- | --- | --- |
| Cc1nc2cc(S(=O)(=O)N(C)c3ccc([C@H]4CC[C@@H](C)[C@@H](C(=O)Nc5ccc(C(F)(F)F)cc5F)[C@@H]4C(=O)O)cc3)ccc2n1C (relative stereo) [Example 235, rel-(1R,2R,3R,6S)-2-((2-fluoro-4-(trifluoromethyl)phenyl)carbamoyl)-3-methyl-6-(4-((N,1,2-trimethyl-1H-benzo[d]imidazole)-5-sulfonamido)phenyl)cyclohexane-1-carboxylic acid] | 2 | 0.0332 | 8.32 | 251 | 251 |
| Cc1nc2cc(S(=O)(=O)N(C)c3ccc([C@H]4CCC[C@@H](C(=O)Nc5ccc(C(F)(F)F)cc5F)[C@@H]4C(=O)O)cc3)cc([C@H]3CCCNC3)c2n1C (relative stereo) [Example 269, (1R,2R,6S)-2-((2-fluoro-4-(trifluoromethyl)phenyl)carbamoyl)-6-(4-((N,1,2-trimethyl-7-((R*)-piperidin-3-yl)-1H-benzo[d]imidazole)-5-sulfonamido)phenyl)cyclohexane-1-carboxylic acid hydrochloride] | 0.794 | 0.257 | 646 | 2510 | 2510 |
| Cc1nc2cc(S(=O)(=O)N(C)c3ccc([C@H]4CCC[C@@H](C(=O)Nc5ccc(C(F)(F)F)cc5F)[C@@H]4C(=O)O)cc3)cc([C@H]3CCCN(C)C3)c2n1C (relative stereo) [Example 271, (1R,2R,6S)-2-((2-fluoro-4-(trifluoromethyl)phenyl)carbamoyl)-6-(4-((N,1,2-trimethyl-7-((R*)-1-methylpiperidin-3-yl)-1H-benzo[d]imidazole)-5-sulfonamido)phenyl)cyclohexane-1-carboxylic acid] | 1.58 | 0.224 | 17.8 | 79.4 | 79.4 |
| Cc1nc2cc(S(=O)(=O)N(C)c3ccc([C@H]4C[C@@H](O[C@@H]5CCOC5)C[C@@H](C(=O)Nc5ccc(C(F)(F)F)cc5F)[C@@H]4C(=O)O)cc3)ccc2n1C (relative stereo) [Example 321, (1R*,2R*,4R*,6S*)-2-((2-fluoro-4-(trifluoromethyl)phenyl)carbamoyl)-4-(((R)-tetrahydrofuran-3-yl)oxy)-6-(4-((N,1,2-trimethyl-1H-benzo[d]imidazole)-5-sulfonamido)phenyl)cyclohexane-1-carboxylic acid] | 1.58 | 0.16 | 31.6 | 200 | 200 |
| Cc1nc2cc(S(=O)(=O)N(C)c3ccc([C@H]4C[C@@H](OC[C@H]5COCCO5)C[C@@H](C(=O)Nc5ccc(C(F)(F)F)cc5F)[C@@H]4C(=O)O)cc3)ccc2n1C (relative stereo) [Example 327, (1R*,2R*,4R*,6S*)-4-(((R)-1,4-dioxan-2-yl)methoxy)-2-((2-fluoro-4-(trifluoromethyl)phenyl)carbamoyl)-6-(4-((N,1,2-trimethyl-1H-benzo[d]imidazole)-5-sulfonamido)phenyl)cyclohexane-1-carboxylic acid] | 2.51 | 0.296 | 58.9 | 200 | 200 |
| COC12CC(CO[C@@H]3C[C@H](c4ccc(N(C)S(=O)(=O)c5ccc6c(c5)nc(C)n6C)cc4)[C@@H](C(=O)O)[C@H](C(=O)Nc4ccc(C(F)(F)F)cc4F)C3)(C1)C2 (relative stereo) [Example 332, rel-(1R,2R,4R,6S)-2-((2-fluoro-4-(trifluoromethyl)phenyl)carbamoyl)-4-((3-methoxybicyclo[1.1.1]pentan-1-yl)methoxy)-6-(4-((N,1,2-trimethyl-1H-benzo[d]imidazole)-5-sulfonamido)phenyl)cyclohexane-1-carboxylic acid] | 3.98 | 0.122 | 12.3 | 100 | 100 |
| Cc1nc2cc(S(=O)(=O)N(C)c3ccc([C@H]4C[C@@H](N5CCCC(F)(F)C5)C[C@@H](C(=O)Nc5ccc(C(F)(F)F)cc5F)[C@@H]4C(=O)O)cc3)ccc2n1C (relative stereo) [Example 353, rel-(1R,2R,4R,6S)-4-(3,3-difluoropiperidin-1-yl)-2-((2-fluoro-4-(trifluoromethyl)phenyl)carbamoyl)-6-(4-((N,1,2-trimethyl-1H-benzo[d]imidazole)-5-sulfonamido)phenyl)cyclohexane-1-carboxylic acid] | 1.58 | 0.113 | 4.47 | 39.8 | 39.8 |
| CCO[C@@H]1C[C@H](c2ccc(N(C)S(=O)(=O)c3ccc4c(c3)nc(Cl)n4C)cc2)[C@@H](C(=O)O)[C@H](C(=O)Nc2ccc(C(F)(F)F)cc2F)C1 (relative stereo) [Example 361, rel-(1R,2S,4R,6R)-2-(4-((2-chloro-N,1-dimethyl-1H-benzo[d]imidazole)-5-sulfonamido)phenyl)-4-ethoxy-6-((2-fluoro-4-(trifluoromethyl)phenyl)carbamoyl)cyclohexane-1-carboxylic acid] | 1.58 | 0.0632 | 31.6 | 501 | 501 |
| CN(c1ccc([C@H]2CCC[C@@H](C(=O)Nc3ccc(C(F)(F)F)cc3F)[C@@H]2C(=O)O)cc1)S(=O)(=O)c1ccc2c(c1)ncn2C (single isomer, unassigned) [Example 88] | 2.51 | 0.0297 | 11.7 | 398 | 398 |
| CC(=O)N1CCc2cc(S(=O)(=O)N(C)c3ccc([C@H]4CCC[C@@H](C(=O)Nc5ccc(C(F)(F)F)cc5F)[C@@H]4C(=O)O)cc3)ccc21 (single isomer, unassigned) [Example 90] | 3.98 | 0.0553 | 69.2 | 1260 | 1260 |

Further lines, with some results ahead:

| IC50 [1] [nM] | fraction unbound at 4 h, 1 µM [2] | Compound | CC50 [3] [nM] | CC50 [4, 5] [nM] | CC50 [4, 6] [nM] |
| --- | --- | --- | --- | --- | --- |
| 3.16 | 0.216 | Cc1nc2cc(S(=O)(=O)N(C)c3ccc([C@H]4CC(F)(F)C[C@@H](C(=O)Nc5ccc(C(F)(F)F)cc5F)[C@@H]4C(=O)O)cc3)ccc2n1C (relative stereo) [Example 363, rel-(1R,2R,6S)-4,4-difluoro-2-((2-fluoro-4-(trifluoromethyl)phenyl)carbamoyl)-6-(4-((N,1,2-trimethyl-1H-benzo[d]imidazole)-5-sulfonamido)phenyl)cyclohexane-1-carboxylic acid] | 17 | 79.4 | 79.4 |
| 1.58 | 0.0875 | Cc1nc2cc(S(=O)(=O)N(C)c3ccc([C@H]4C[C@@H](CS(C)(=O)=O)C[C@@H](C(=O)Nc5ccc(C(F)(F)F)cc5F)[C@@H]4C(=O)O)cc3)ccc2n1C (relative stereo) [Example 395, rel-(1R,2R,4R,6S)-2-((2-fluoro-4-(trifluoromethyl)phenyl)carbamoyl)-4-((methylsulfonyl)methyl)-6-(4-((N,1,2-trimethyl-1H-benzo[d]imidazole)-5-sulfonamido)phenyl)cyclohexane-1-carboxylic acid] | 87.1 | 1000 | 1000 |
| 1.58 | 0.0527 | Cc1nc2cc(S(=O)(=O)N(C)c3ccc([C@@H]4C[C@H](N5CC6(F)CC5C6)C[C@H](C(=O)Nc5ccc(C(F)(F)F)cc5F)[C@H]4C(=O)O)cc3)ccc2n1C (relative stereo) [Example 397, rel-(1R,2R,4R,6S)-2-((2-fluoro-4-(trifluoromethyl)phenyl)carbamoyl)-4-(4-fluoro-2-azabicyclo[2.1.1]hexan-2-yl)-6-(4-((N,1,2-trimethyl-1H-benzo[d]imidazole)-5-sulfonamido)phenyl)cyclohexane-1-carboxylic acid] | 16.6 | 316 | 316 |
| 20 | 0.049 | Cc1nc2cc(S(=O)(=O)N(C)c3ccc([C@H]4C[C@H](N5CC6(F)CC5C6)C[C@@H](C(=O)Nc5ccc(C(F)(F)F)cc5F)[C@@H]4C(=O)O)cc3)ccc2n1C (relative stereo) [Example 400, rel-(1R,2R,4S,6S)-2-((2-fluoro-4-(trifluoromethyl)phenyl)carbamoyl)-4-(4-fluoro-2-azabicyclo[2.1.1]hexan-2-yl)-6-(4-((N,1,2-trimethyl-1H-benzo[d]imidazole)-5-sulfonamido)phenyl)cyclohexane-1-carboxylic acid] | 389 | 7940 | 7940 |
